Laboratory results: patent US4022962A, “Carbamylguanidine antimicrobial compounds” (Cooper Laboratories, Inc., priority 1975, dated 1977)
≈ marks a conversion by molar mass, not a printed value. Structures can show the parent of a compound that is named as a salt.

Assays:
S. Mutans = assay: quantitative serial dilution test, minimal inhibitory concentration; assay type: cell-based; conditions: Streptococcus mutans, brain-heart infusion broth, half strength, 37° C., 36 hours
Procedure: A quantitative serial dilution test may also be performed by the following procedure.
A 20 mg/ml solution of the compound to be tested is prepared in a standard brain-heart infusion broth medium which has been diluted with water to one-half standard strength. Serial dilutions are prepared by adding 1 ml of the solution to a test tube containing 9 ml of medium. Five milliliters of the resulting solution are then added to another test tube containing 5 ml of the medium. The resulting solution is then again diluted by the same procedure. Ordinarily one tenfold dilution and four twofold dilutions are made. The procedure can be continued if more dilute solutions are required. Each of the series of tubes containing solutions of the compounds to be assayed is inoculated with two drops of a heavy culture of the chosen microorganisms in the brain-heart infusion broth. The tubes are incubated at 37° C. for 36 hours and the most dilute solution showing no microbial growth is noted. The concentration of this solution is reported as the minimal inhibitory concentration (MIC).
The minimum inhibitory concentration of a number of the compounds of this invention with respect to the microorganism S. Mutans were determined by the procedure described above. Chlorhexidine diacetate a commercially successful antimicrobial was used as a control.

mice = assay: acute oral toxicity in mice; assay type: in vivo; conditions: 8 gms/Kg orally
Procedure: Acute oral toxicity of the compounds of this invention is determined in mice by the following procedure. The mice are fasted overnight, then formed into groups of 10 for testing. The animals in each group are fed a chosen dose and the dose is varied from group to group to cover a range of doses. The groups are then observed for a period of five days and the number of dead animals in each group is noted each day.

dental plaque = conditions: cited from earlier work
[1] = when swallowed; cited from earlier work
[2] = in vivo; cited from earlier work
[3] = at the prevailing pH of the mouth; cited from earlier work
[4] = adsorption to extracted enamel tooth surfaces, spectrophotometric; parameters: species or system human; conditions: after no more was removed; fresh portions of the solutions
Procedure: Absorption of the compounds of this invention to extracted, non-carious, unprepared enamel tooth surfaces was investigated by the following procedure. Extracted human teeth, having their roots coated with wax so that only the enamel crowns were exposed, were immersed in 10 ml portions of stirred aqueous solutions of the test compound having a concentration of 10 micrograms/milliliter. After 10 minutes, the teeth were removed and the amount of test compound removed from the solution by adsorption was determined spectrophotometrically. […] The adsorption of the compounds of this invention was compared with that of chlorhexidine and found to be substantially greater. […] After no more of the test compounds was removed from the solution by adsorption, the teeth were immersed in fresh portions of the solutions.

Compound	MIC (S. Mutans) [µg/mL]	also measured
N=C(NCCCCNC(=N)NC(=O)Nc1ccc(Cl)cc1)NC(=O)Nc1ccc(Cl)cc1 [1,4-bis(4-chlorophenylcarbamylguanidino)butane]	0.625 (≈ 1.3 µM)	–
N=C(NCCCCCNC(=N)NC(=O)Nc1ccc(Cl)cc1)NC(=O)Nc1ccc(Cl)cc1 [1,5-bis(4-chlorophenylcarbamylguanidino)pentane monoacetate]	0.078	–
N=C(NC(=O)NCCCCCCNC(=O)NC(=N)Nc1ccc(Cl)cc1)Nc1ccc(Cl)cc1 [1,6-Bis(p-chlorophenylamidinoureido)hexane]	2.5 (≈ 4.93 µM)	–
N=C(NCCCCCCNC(=N)NC(=O)Nc1ccc(Cl)cc1)NC(=O)Nc1ccc(Cl)cc1 [1,6-Bis-(p-chlorophenylcarbamylguanidino)hexane]	–	acute oral toxicity (mice): essentially atoxic
N=C(NCCCCCCNC(=N)NC(=O)Nc1ccccc1Cl)NC(=O)Nc1ccccc1Cl [1,6-bis(2-chlorophenylcarbamylguanidino)hexane diacetate]	0.312	–
CCCCC(CC)CNC(=O)NC(=N)NCCCCCCNC(=N)NC(=O)NCC(CC)CCCC (centres unmarked) [1,6-bis(2-ethylhexylcarbamylguanidino)hexane]	0.625 (≈ 1.22 µM)	–
N=C(NCCCCCCNC(=N)NC(=O)Nc1cccc(Cl)c1)NC(=O)Nc1cccc(Cl)c1 [1,6-bis(3-chlorophenylcarbamylguanidino)hexane diacetate]	0.078	–
N=C(NCCCCCCNC(=N)NC(=O)Nc1cccc(C(F)(F)F)c1)NC(=O)Nc1cccc(C(F)(F)F)c1 [1,6-bis(3-trifluoromethylphenylcarbamylguanidino)hexane dihydrochloride]	0.312	–
N=C(NCCCCCCNC(=N)NC(=O)Nc1ccc(Br)cc1)NC(=O)Nc1ccc(Br)cc1 [1,6-bis(4-bromophenylcarbamylguanidino)hexane diacetate]	0.312	–
N=C(NCCCCCCNC(=N)NC(=O)Nc1ccc(Cl)cc1)NC(=O)Nc1ccc(Cl)cc1 [1,6-bis(4-chlorophenylcarbamylguanidino)hexane diacetate]	0.078	–
N=C(NCCCCCCNC(=N)NC(=O)Nc1ccc(F)cc1)NC(=O)Nc1ccc(F)cc1 [1,6-bis(4-fluorophenylcarbamylguanidino)hexane diacetate]	0.156	–
N=C(NCCCCCCNC(=N)NC(=O)Nc1ccccc1)NC(=O)Nc1ccccc1 [1,6-bis(phenylcarbamylguanidino)hexane]	0.625 (≈ 1.43 µM)	–
N=C(NCCCCCCCNC(=N)NC(=O)Nc1ccc(Cl)cc1)NC(=O)Nc1ccc(Cl)cc1 [1,7-bis(4-chlorophenylcarbamylguanidino)heptane dihydrochloride]	0.312	–
CCCCC(CC)CNC(=N)NC(=N)NCCCCCCNC(=N)NC(=N)NCC(CC)CCCC (centres unmarked) [alexidine, 1,6-bis(2-ethylhexylbiguanidino)hexane]	–	clinical antiplaque effect (dental plaque): clinically effected antiplaque agents; adsorption to gastrointestinal mucosa [1]: adsorbed to the gastrointestinal mucosa; local irritation of the oral mucosa and tongue [2]: produce local irritation of the oral mucosa and tongue; ionization state [3]: almost entirely cationic
N=C(NCCCCCCNC(=N)NC(=N)Nc1ccc(Cl)cc1)NC(=N)Nc1ccc(Cl)cc1 [chlorhexidine diacetate, reference compound]	0.078	–
[H]/N=C(\N/C(=N/[H])NCCCCCCNC(=N)NC(=N)Nc1ccc(Cl)cc1)Nc1ccc(Cl)cc1 [chlorhexidine, 1,6-bis-(p-chlorophenylbiguanidino)hexane]	–	further adsorption from fresh portions of solution [4]: No further adsorption; clinical antiplaque effect (dental plaque): clinically effected antiplaque agents; adsorption to gastrointestinal mucosa [1]: adsorbed to the gastrointestinal mucosa; local irritation of the oral mucosa and tongue [2]: produce local irritation of the oral mucosa and tongue; ionization state [3]: almost entirely cationic
